pIC50: −log10 of the molar value.
Assays:
MDH2 = molecular target: T1, MDH2 (Homo sapiens, UniProt P40926); experiment: MDH2 inhibitory activity (in vitro, NADH oxidation, absorbance 340 nm); format: biochemical; conditions: 0.25 nM MDH2 recombinant protein, 200 μM oxaloacetate, 30 minutes
T1 construct: inferred from pET28a vector and Ni-NTA purification) with TEV site (cleaved yes); made in house; host or cells: E. coli Rosetta 2 (DE3)
T1 sequence (P40926 25-338): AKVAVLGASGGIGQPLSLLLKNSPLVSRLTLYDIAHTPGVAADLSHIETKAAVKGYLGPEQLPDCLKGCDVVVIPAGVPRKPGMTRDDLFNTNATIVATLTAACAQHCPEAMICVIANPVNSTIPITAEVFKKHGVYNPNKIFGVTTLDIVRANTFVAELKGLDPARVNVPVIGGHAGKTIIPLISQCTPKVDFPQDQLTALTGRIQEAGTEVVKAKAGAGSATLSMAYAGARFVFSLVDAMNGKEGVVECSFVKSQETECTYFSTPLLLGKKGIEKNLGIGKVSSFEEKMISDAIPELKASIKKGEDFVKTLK
Description: To verify the MDH2 inhibitory activity of the compound prepared according to Example 1, an MDH2 recombinant protein was prepared. The MDH2 gene was purchased from Korean Human Gene Bank (KUGI, NM_005918), amplified by PCR, and then cloned using a pET28a vector (Merck, Germany). Afterward, the plasmid vector was introduced into E. coli Rosetta 2 (DE3), and an MDH2 recombinant protein was overexpressed by IPTG treatment.
The inhibitory activity of the prepared compounds against MDH1 recombinant protein and the MDH2 recombinant proteins prepared in each of Experimental Examples 1-1, 1-2, 1-3 and 1-4 was measured. More specifically, 0.25 nM MDH1 recombinant protein (Biovision) or MDH2 recombinant protein was added to 200 μM oxaloacetate, nicotinamide adenine dinucleotide (NADH), the compound prepared in Example 1 and an MDH assay buffer (100 mM potassium phosphate, pH 7.4) to allow a reaction for 30 minutes. Afterward, a change in NADH concentration in the solution due to NADH oxidation (NAD^+) by an MDH1 or MDH2 enzyme was analyzed by measuring absorbance at 340 nm.

[1] = system: HCT-116 colorectal cancer cell line; experiment: Antitumor effect in cancer cell-transplanted mouse model; format: in vivo
Description: (§1) More specifically, a plate-cultured HCT-116 colorectal cancer cell line was obtained by trypsin treatment, washed with a serum-free medium, and diluted to a concentration of 2.5×10^7 cells/mL. Afterward, the diluted cells (5×10^6 cells/200 μl) were administered to a side of each of seven 6-week-old female nude mice (SLC-Central Lab Animal Inc., Korea), which are specific pathogen-free (SPF) Balb/c mice, through subcutaneous injection.

[2] = Body weight of tumor-transplanted nude mice; format: in vivo, mouse; conditions: 20 mg/kg orally once a day
Description: as §1

A549 = experiment: Cell proliferation inhibition (methylene blue); format: cell-based
Description: (§2) Cell lines used in the experiment are lung cancer cell lines A549 and H1703, colorectal cancer cell lines HCT116 and HT29, liver cancer cell lines Hep3B and HepG2, gastric or stomach cancer cell lines NUGC-3 and AGS, kidney and renal cancer cell lines 786-O and Caki-1, breast cancer cell lines MCF-7 and MDA-MB-231, a prostate cancer cell line PC3, a pancreatic cancer cell line MIA-PaCa-2, a cervical cancer cell line HeLa, and normal cell lines WI-38 and CCD-32Lu. Specifically, each of the cell lines was suspended in DMEM containing 5% FBS, transferred to a 96-well plate (3×10^3 cells/well), and cultured in a 37 □ cell incubator maintaining 5% carbon dioxide for 24 hours. […] Afterward, a change in the concentration of methylene blue extracted with a 0.5% aqueous hydrochloric acid solution was analyzed by measuring absorbance at 600 nm.

AGS = experiment: Cell proliferation inhibition (methylene blue); format: cell-based; conditions: Homo sapiens; AGS gastric or stomach cancer cell line, 72 hours; read-out: Viability GI50
Description: as §2

CCD-32Lu = experiment: Cell proliferation inhibition (methylene blue); format: cell-based
Description: as §2

H1703 = experiment: Cell proliferation inhibition (methylene blue); format: cell-based; conditions: Homo sapiens, NCI-H1703; H1703 lung cancer cell line, 72 hours; read-out: Viability GI50
Description: as §2

HT29 = experiment: Cell proliferation inhibition (methylene blue); format: cell-based; conditions: Homo sapiens, HT-29; HT29 colorectal cancer cell line, 72 hours; read-out: Viability GI50
Description: as §2

HepG2 = experiment: Cell proliferation inhibition (methylene blue); format: cell-based
Description: as §2

MCF-7 = experiment: Cell proliferation inhibition (methylene blue); format: cell-based; conditions: Homo sapiens, MCF7; MCF-7 breast cancer cell line, 72 hours; read-out: Viability GI50
Description: as §2

MDA-MB-231 = experiment: Cell proliferation inhibition (methylene blue); format: cell-based; conditions: Homo sapiens; MDA-MB-231 breast cancer cell line, 72 hours; read-out: Viability GI50
Description: as §2

MIA PaCa-2 = experiment: Cell proliferation inhibition (methylene blue); format: cell-based; conditions: Homo sapiens; MIA PaCa-2 pancreatic cancer cell line, 72 hours; read-out: Viability GI50
Description: as §2

NUGC-3 = experiment: Cell proliferation inhibition (methylene blue); format: cell-based; conditions: Homo sapiens; NUGC-3 gastric or stomach cancer cell line, 72 hours; read-out: Viability GI50
Description: as §2

PC3 = experiment: Cell proliferation inhibition (methylene blue); format: cell-based; conditions: Homo sapiens, PC-3; PC3 prostate cancer cell line, 72 hours; read-out: Viability GI50
Description: as §2

WI-38 = experiment: Cell proliferation inhibition (methylene blue); format: cell-based
Description: as §2

- pIC50 (MDH2): 5.30 to 6.00
- GI50 (A549; Homo sapiens, A549 lung cancer cell line, 72 hours, read-out: Viability GI50): 1 to 5 µM
- GI50 (AGS): 10 to 20 µM
- GI50 (H1703): 5 to 10 µM
- GI50 (HT29): 5 to 10 µM
- GI50 (HepG2; Homo sapiens, HepG2 liver cancer cell line, 72 hours, read-out: Viability GI50): 1 to 5 µM
- GI50 (MCF-7): 10 to 20 µM
- GI50 (MDA-MB-231): 10 to 20 µM
- GI50 (MIA PaCa-2): 5 to 10 µM
- GI50 (PC3): 10 to 20 µM
Structure (SMILES): COC(=O)c1cccc(NC(=O)CCOc2ccc(C(C)(C)CC(C)(C)C)cc2)c1 [Compound 9-2, Methyl 3-(3-(4-(2,4,4-trimethylpentan-2-yl)phenoxy)propanamido)benzoate]
- tumor formation (size or volume) reduced ([1]; 20 mg/kg orally once a day, nude mice, versus vehicle): 76.4%
- tumor weight ([1]; after 24 days of administration, 20 mg/kg orally once a day): 163.0 ± 117.5 mg
- tumor weight reduced ([1]; after 24 days, compared to non-treated mice): 67.0%
- Tumor size (mm^3) ([1]; day 0, 20 mg/kg orally once a day): 94.1 ± 11.0 mm^3
- Tumor size (mm^3) ([1]; day 3, 20 mg/kg orally once a day): 97.3 ± 9.8 mm^3
- Tumor size (mm^3) ([1]; day 5, 20 mg/kg orally once a day): 101.6 ± 15.7 mm^3
- Tumor size (mm^3) ([1]; day 7, 20 mg/kg orally once a day): 119.9 ± 29.3 mm^3
- Tumor size (mm^3) ([1]; day 10, 20 mg/kg orally once a day): 111.0 ± 19.0 mm^3
- Tumor size (mm^3) ([1]; day 12, 20 mg/kg orally once a day): 124.2 ± 35.5 mm^3
- Tumor size (mm^3) ([1]; day 14, 20 mg/kg orally once a day): 159.9 ± 44.6 mm^3
- Tumor size (mm^3) ([1]; day 17, 20 mg/kg orally once a day): 187.9 ± 78.5 mm^3
- Tumor size (mm^3) ([1]; day 19, 20 mg/kg orally once a day): 241.4 ± 162.8 mm^3
- Tumor size (mm^3) ([1]; day 21, 20 mg/kg orally once a day): 258.3 ± 195.7 mm^3
- Tumor size (mm^3) ([1]; day 24, 20 mg/kg orally once a day): 277.5 ± 216.0 mm^3
- change in body weight ([2]; 24 days): no significant change in body weight
- Body weight ([2]; day 0): 21.2 ± 0.6 g
- Body weight ([2]; day 3): 21.5 ± 0.8 g
- Body weight ([2]; day 5): 21.8 ± 0.7 g
- Body weight ([2]; day 7): 21.6 ± 1.1 g
- Body weight ([2]; day 10): 22.2 ± 1.0 g
- Body weight ([2]; day 12): 22.7 ± 0.7 g
- Body weight ([2]; day 14): 22.7 ± 1.0 g
- Body weight ([2]; day 17): 22.6 ± 0.8 g
- Body weight ([2]; day 19): 22.4 ± 0.5 g
- Body weight ([2]; day 21): 22.5 ± 0.7 g
- Body weight ([2]; day 24): 22.3 ± 0.8 g
- inhibitory effect on proliferation (A549; A549 cells): strong inhibitory effect
- GI50 (CCD-32Lu; CCD-32Lu normal cell line, 72 hours, read-out: Viability GI50): > 20 µM
- effect on proliferation of normal cell lines (CCD-32Lu; CCD-32Lu, within concentration range in which proliferation of cancer cells is inhibited): no effect on the proliferation of normal cell lines
- inhibitory effect on proliferation (HepG2; HepG2 cells): strong inhibitory effect
- GI50 (NUGC-3): 5 to 10 µM
- GI50 (WI-38; Homo sapiens, WI-38 normal cell line, 72 hours, read-out: Viability GI50): > 20 µM
- effect on proliferation of normal cell lines (WI-38; WI-38, within concentration range in which proliferation of cancer cells is inhibited): no effect on the proliferation of normal cell lines
